What was measured:
[1] = target: Neuraminidase (NA) of A/Taiwan/1/2013(H7N9) NA-WT (Influenza A virus, UniProt A0A024E3Q2); format: biochemical; settings: read-out: IC50, nM ± SD
[2] = target: Neuraminidase (NA) of A/Washington/01/2007, NA-WT (Influenza A virus, UniProt A7UPN3); format: biochemical; settings: read-out: IC50, nM ± SD

`CCC(CC)[C@H](NC(C)=O)[C@@H]1[C@H](O)[C@@H](C(=O)O)C[C@H]1N=C(N)N` [Peramivir, peramivir] showed an IC50 [1] of 0.08 ± 0.02 nM and an IC50 [2] of 0.23 ± 0.03 nM.
